From patent publication US8299046B2, “Synthetic triterpenoids and tricyclic-bis-enones for use in stimulating bone and cartilage growth” (Trustees of Dartmouth College, priority 2006, dated 2012)

Experiments:
RAW cells = assay: Inhibition of NO production in RAW cells; type: cell-based
heme oxygenase-1 [1] = assay: In vivo assay of heme oxygenase-1 induction
iNOS in RAW cells = iNOS in RAW cells stimulated with interferon-γ; type: cell-based
[2] = system: CD11b expression in U937 cells; assay: CD11b expression in U937 cells; type: cell-based, human
[3] = system: U937 human leukemia cells; assay: Proliferation of U937 leukemia cells; type: cell-based
[4] = system: RMPI 8226 human myeloma cells; assay: Proliferation of RMPI 8226 myeloma cells; type: cell-based
[5] = system: heme oxygenase-1 in U937 cells; assay: Heme oxygenase-1 induction in U937 cells; type: cell-based, human
[6] = system: MCF-7 breast cancer cell lines; conditions: Honda et al., 2003; cited from earlier work
[7] = system: neonatal murine calvarial bones; assay: Neonatal murine calvarial bone formation assay; type: cell-based, ICR Swiss mice; conditions: for alkaline phosphatase in the calvarial culture media: 4 and 7 days (FIGS. 2, 5, 8, 11); for cartilage formation: calvarial cultures, 7 days (FIGS. 3, 6, 9, 12); for new bone formation: calvarial organ culture, 7 days, 40, 200, 1000 nM (FIGS. 1, 4, 10)
Experimental: Neonatal murine calvarial bone formation assay. The technique for studying organ cultures of neonatal murine calvarial bones has been described in detail previously (Traianedes et al., 1999, Mundy et al., 1999). The bones were removed from the calvaria of 4-5 day old ICR Swiss mice, and then cultured in BGJ medium with 0.1% BSA for 7 Days using 4 calvarial bones per group triterpenoids in differing amounts were added for 7 days. Alkaline phosphatase was determined at 4 and 7 days and expressed as arbitrary units of alkaline phosphatase activity. At the end of the experiment the media was saved and assayed for the presence of alkaline phosphatase and the calvaria bones were then fixed overnight in 10% formalin, decalcified in 14% EDTA overnight and were then embedded in paraffin wax. Sections were cut, using a standard microtome, along the midline suture to reveal the sagittal suture and the region posterior to this suture. Four micrometer sections were taken initially and at two sequential […] depths. Sections were placed on coated glass slides (Superfrost plus, Fisher Scientific, Pittsburgh, Pa.) and stained with hematoxylin and eosin. The effects on bone formation were evaluated by morphologic assessment.
Imaging. Digital images across sections of the neonatal murine calvaria were taken from each group. Histomorphometric analysis was performed on these calvarial images using the Osteomeasure System (Osteometrics Inc., Atlanta, Ga.). The total and new bone area (expressed as mm^2×10^−3) was determined on all images across the calvarial section.

[8] = system: SZP synthesis in superficial zone articular chondrocytes; assay: Bovine calf stifle joint SZP assay; type: cell-based; conditions: for SZP synthesis at lower concentrations: 0.01 to 1 nM; for SZP synthesis at higher concentrations / SZP synthesis at higher concentrations with concurrent TGF-β1: 100-1000 nM; for SZP synthesis at higher concentrations: Day 3 culture media; for SZP synthesis at higher concentrations with concurrent TGF-β1: concurrent TGF-β1 (4 pM)
Experimental: Bovine calf stifle joint SZP assay. Bovine calf stifle joints were dissected under aseptic conditions. The superficial zone of articular cartilage of femoral condyles (approximately 100 μm thickness) was harvested using a dermatome. The cartilage slices were digested with 0.2% collagenase P in culture medium. Isolated chondrocytes were plated in monolayer at a density of 1×10^5 cells/well (approximately 2.5×10^4 cells/cm^2) in 12-well culture plates and incubated at 37° C. in a moist atmosphere of 5% carbon dioxide and 95% air. Chondrocytes were cultured in D-MEM/F-12 containing 10% fetal bovine serum over night, and then the media were changed in serum-free D-MEM/F-12 supplemented with ITSL (insulin, transferrin, selenious acid, and linoleic acid). Both media contain 100 U/ml penicillin, 100 μg/ml streptomycin, 50 μg/ml ascorbate-2-phosphate, and 0.1% bovine serum albumin. After changing the media with serum into the serum-free chemically defined media, various concentration of synthetic triterpenoids were added into the cell culture. As most of SZP is secreted into the culture medium, supernatants were harvested as samples and the SZP synthesis was analyzed by SDS-PAGE and Western blotting using a monoclonal antibody S6.79, obtained from Rush Medical College, Chicago, Ill. SZP accumulation into the culture medium was also quantified by ELISA using purified SZP as standard. The accumulation of SZP into the culture media increased in a time-dependent manner (Day 1<Day 2<Day 3). Therefore the culture of media of Day 3 was used for all the studies.

heme oxygenase-1 [9] = conditions: Liby et al., 2005; cited from earlier work

| Compound | alkaline phosphatase in the calvarial culture media [7] | cartilage formation [7] | new bone formation [7] | SZP synthesis at lower concentrations [8] | SZP synthesis at higher concentrations [8] | SZP synthesis at higher concentrations with concurrent TGF-β1 [8] | also measured |
| --- | --- | --- | --- | --- | --- | --- | --- |
| CC1(C)C(=O)C(C#N)=CC2(C)C3=CC(=O)C(C#N)=C(C#C[Si](C)(C)C)C3CCC12 (racemic) [TBE-31] |  |  |  |  |  |  | potency for inhibition of NO production in RAW cells (RAW cells): extremely potent at one nanomolar concentrations; potency for NO inhibition in RAW cells compared with CDDO and TP-225 (RAW cells; comparison): much higher than CDDO and equal to TP-225; potency in heme oxygenase-1 induction compared with CDDO and CDDO-Im (heme oxygenase-1 [1]; comparison): much higher than CDDO and equal to CDDO-Im; in vivo heme oxygenase-1 induction (heme oxygenase-1 [1]; oral): orally active; iNOS in RAW cells (iNOS in RAW cells): inhibits iNOS; CD11b expression in U937 cells [2]: induces CD11b expression; potency for CD11b induction compared with CDDO and CDDO-Im ([2]; comparison): much higher than CDDO and CDDO-Im; proliferation of U937 human leukemia cells [3]: inhibits proliferation; proliferation of RMPI 8226 human myeloma cells [4]: inhibits proliferation; induction of heme oxygenase-1 in U937 cells [5]: potent inducer |
| CC1(C)C(=O)C(C#N)=C[C@]2(C)C3=CC(=O)C(C#N)=C[C@]3(C)CC[C@@H]12 [(−)-TBE-9] |  |  |  |  |  |  | activity against MCF-7 cell lines [6]: active |
| CC1(C)CC[C@]2(C(=O)O)CC[C@]3(C)[C@H](C(=O)C=C4[C@@]5(C)C=C(C#N)C(=O)C(C)(C)[C@@H]5CC[C@]43C)[C@@H]2C1 [TP-151, 2-cyano-3,12-dioxooleane-1,9(11)-dien-28-oic acid] | increases | No evidence of cartilage formation | Significant increase | up-regulated SZP synthesis | down-regulated SZP synthesis in a dose-dependent manner | the same trend |  |
| COC(=O)[C@]12CCC(C)(C)C[C@H]1[C@H]1C(=O)C=C3[C@@]4(C)C=C(C#N)C(=O)C(C)(C)[C@@H]4CC[C@@]3(C)[C@]1(C)CC2 [TP-155] | increases | Some evidence of cartilage formation was seen in these cultures (FIG. 3) however this was not significant | Significant increase | up-regulated SZP synthesis | down-regulated SZP synthesis in a dose-dependent manner | the same trend |  |
| CC1(C)CC[C@]2(C(=O)n3ccnc3)CC[C@]3(C)[C@H](C(=O)C=C4[C@@]5(C)C=C(C#N)C(=O)C(C)(C)[C@@H]5CC[C@]43C)[C@@H]2C1 [TP-235] | no convincing change | No evidence of cartilage formation |  | no obvious effects | down-regulated SZP synthesis in a dose-dependent manner | the same trend | potency in heme oxygenase-1 induction assay (literature) (heme oxygenase-1 [9]): highest potency amongst semi-synthetic triterpenoids; new bone formation at 40 nM ([7]; at 40 nM, 7 days (FIG. 7)): Significant increase |
| CCNC(=O)[C@]12CCC(C)(C)C[C@H]1[C@H]1C(=O)C=C3[C@@]4(C)C=C(C#N)C(=O)C(C)(C)[C@@H]4CC[C@@]3(C)[C@]1(C)CC2 [TP-319] | dose responsive increases | clear evidence increases in cartilage formation | Some increases | no obvious effects | down-regulated SZP synthesis in a dose-dependent manner | the same trend |  |
| TGF-β1: Recombinant human TGF-β1 |  |  |  |  |  |  | SZP synthesis (TGF-β1) ([8]; 0.4-120 pM): up-regulate SZP synthesis in a dose-dependent manner |
